Measured values: patent US20240018132A1, “5-HYDROXY-1,4-NAPHTHALENEDIONE FOR USE IN THE TREATMENT OF CANCER” (GODAVARI BIOREFINERIES LIMITED, priority 2020, published 2024)

Columns and labels:
MDAMB231 [1] = assay: In vitro antiproliferative assay (MTT assay), breast cancer cell line; type: cell-based; details: Homo sapiens
Procedure: (§1) MTT assay is a simple and sensitive assay where, metabolic reducing activity of the cells is measured. The increase of this activity in time is taken as a parameter of cell growth. If treatment with a drug impairs this increase, the action is a consequence of growth inhibition, cell killing or both. […] All cell lines were cultured in a 37° C. incubator with a 5% CO2 environment. Compounds were dissolved in DMSO with a concentration of 0.1M (stock solution). Cells were seeded into 96-well plates at suitable plating efficiency.
(§2) Following plating efficiencies were standardized for MTT assay:
(§3) In the MTT procedure, the cells were plated in 96 well plates as per predetermined plating efficiency (Table1). The plates were then incubated for 24 hrs in 5% CO2 atmosphere at 37° C. Appropriate concentrations of the drugs were then added to the plate and further incubation was carried out for 48 hrs (in 5% CO2 atmosphere at 37° C.). The assay plate was then centrifuged twice at 3000 rpm for 3 mins and supernatant was then discarded. 100 ul of MTT solution (0.5 mg/ml) was then added to each well of the plate and it was further incubated for 4 hrs (in 5% CO2 atmosphere at 37° C.) Following 4 hr incubation, the plate was then centrifuged twice, and supernatant was aspirated off very carefully. 200 ul of DMSO was then added to each well to solubilize. MTT crystals and mixed well by shaking the plate. XY graph of log percent viability was then plotted against log drug concentration.

PC3 [2] = assay: In vitro sphere-forming assay (cancer stem cells), Prostosphere media; details: for viability at 0.0025 µM / viability at 0.025 µM / viability at 0.25 µM / viability at 2.5 µM / viability at 25 µM: Homo sapiens, PC-3, read-out: % Viability of spheres (PC3); for 3D sphere count of PC3: Prostosphere media, 2000 cells/well, n = 6 ± S.D
Procedure: In Vitro Sphere-forming Assay: Sphere assay measures the ability of cancer stem cells (CSCs) to form spheres in specially designed serum-free medium.
Prostosphere Media Preparation (For 100 mL):1 g methyl cellulose autoclaved with magnetic stirrer, 100 mL plain media (Prostate Epithelial Basal Medium) was added and dissolved, under magnetic stirring. After complete dissolution, Insulin-40 μL, B27-2 mL, EGF-80 μL, Penstrep-1 ml was added.
Procedure—The cells were trypsinised and made into single-cell suspension by passing through cell strainers (100 μl and 40 μl, respectively), The cells were diluted at a concentration of 2000 cells/100 μL and suspended in either Mammosphere (for breast cell lines) or Prostosphere (for prostate cell lines). 100 μL of this suspension was added into each well of 96-well suspension plates and incubated at 37° C., 5% CO2 for 24 hrs. Appropriate concentrations of the drugs (2 μL) were added into respective wells with 100 μL of stem cell culture medium. Plates were incubated at 37° C., 50 CO2 for 72 hrs. After incubation, 2.5 μL of the respective drug concentration and 50 μL of stem cell culture medium were added into each well and the plates were further incubated at 37° C., 50% CO2 for 72 hrs. 3 μL of the respective drug concentration was added with 50 μL of stem cell culture medium again after incubation and plates were reincubated for 72 hrs at 37° C., 50 CO2. Number of primary spheres formed for each concentration were counted. The spheres were converted to 0 viability of spheres compared to untreated (Growth Control with DMSO, GCD).

PC3 [3] = assay: In vitro antiproliferative assay (MTT assay), prostate cancer cell line; type: cell-based; details: Homo sapiens
Procedure: as §1, §2, §3

MDAMB231 [4] = assay: In vitro sphere-forming assay (cancer stem cells), Mammosphere media; details: for viability at 0.0025 µM / viability at 0.025 µM / viability at 0.25 µM / viability at 2.5 µM / viability at 25 µM: Homo sapiens, MDA-MB-231, read-out: % Viability of spheres (MDAMB231); for 3D sphere count of MDAMB231: Mammosphere media, 2000 cells/well, n = 6 ± S.D
[5] = MDA-MB-231, 48 h, MTT assay, breast cancer MDAMB231, 48 hrs drug incubation
[6] = PC-3, 48 h, MTT assay, prostate cancer PC3, 48 hrs drug incubation
[7] = MDA-MB-231, MTT assay, MDAMB231

Row | Compound | IC50 (MDAMB231 [1]; [5]) | IC50 (PC3 [3]; [6]) | viability at 0.0025 µM (PC3 [2]) | viability at 0.025 µM (PC3 [2]) | viability at 0.25 µM (PC3 [2]) | viability at 2.5 µM (PC3 [2]) | viability at 25 µM (PC3 [2]) | 3D sphere count of PC3 (PC3 [2]; drug 0.0025 uM) | 3D sphere count of PC3 (PC3 [2]; drug 0.025 uM) | 3D sphere count of PC3 (PC3 [2]; drug 0.25 uM) | 3D sphere count of PC3 (PC3 [2]; drug 2.5 uM) | 3D sphere count of PC3 (PC3 [2]; drug 25 uM) | viability at 0.0025 µM (MDAMB231 [4]) | viability at 0.025 µM (MDAMB231 [4]) | viability at 0.25 µM (MDAMB231 [4]) | viability at 2.5 µM (MDAMB231 [4]) | viability at 25 µM (MDAMB231 [4]) | 3D sphere count of MDAMB231 (MDAMB231 [4]; drug 0.0025 uM) | 3D sphere count of MDAMB231 (MDAMB231 [4]; drug 0.025 uM) | 3D sphere count of MDAMB231 (MDAMB231 [4]; drug 0.25 uM) | further results
1 | O=C1C(Oc2ccc(F)cc2)=CC(=O)c2c(OCCCN3CCOCC3)cccc21 [Formula 78] | 5.5 µM | 3.46 µM | 81% | 68% | 53% | 41% | 30% | 65(±4) | 55(±3) | 43(±3) | 33(±3) | 24(±4) | 87% | 67% | 57% | 46% | 35% | 79(±3) | 65(±5) | 52(±4) | 3D sphere count of MDAMB231 (MDAMB231 [4]; drug 2.5 uM): 42(±4); 3D sphere count of MDAMB231 (MDAMB231 [4]; drug 25 uM): 32(±3)
2 | O=C1C(Oc2ccc(F)c(F)c2)=CC(=O)c2c(OCCN3CCOCC3)cccc21 [Formula 76] | 2.48 µM | 0.324 µM | 86% | 72% | 55% | 38% | 28% | 69(±3) | 58(±4) | 44(±4) | 31(±3) | 23(±3) | 82% | 67% | 56% | 40% | 29% | 74(±3) | 61(±2) | 51(±3) | 3D sphere count of MDAMB231 (MDAMB231 [4]; drug 2.5 uM): 36(±3); 3D sphere count of MDAMB231 (MDAMB231 [4]; drug 25 uM): 26(±4)
3 | COc1ccc(OC2=CC(=O)c3c(OCCCCN4CCOCC4)cccc3C2=O)cc1 [Formula 85] |  |  |  |  |  |  |  |  |  |  |  |  |  |  |  |  |  |  |  |  | IC50 (MDAMB231 [1]; [7]): 4.14 µM; IC50 (PC3 [3]; PC-3, MTT assay, PC3): 2.36 µM
4 | COc1ccc(OC2=CC(=O)c3c(OCCN4CCCCC4)cccc3C2=O)cc1 [Formula 84] |  |  |  |  |  |  |  |  |  |  |  |  |  |  |  |  |  |  |  |  | IC50 (MDAMB231 [1]; [7]): 0.562 µM; IC50 (PC3 [3]; PC-3, MTT assay, PC3): 0.492 µM
5 | O=C1C(Oc2ccc3c(c2)OCO3)=CC(=O)c2c(OCCCCN3CCOCC3)cccc21 [Formula 47, 5-(4-morpholinobutoxy)-2-(benzo[d][1,3]dioxol-5-yloxy)naphthalene-1,4-dione] | 0.97 µM | 0.582 µM | 77% | 57% | 43% | 28% | 18% | 62(±4) | 46(±4) | 35(±3) | 23(±3) | 15(±3) | 78% | 59% | 43% | 27% | 17% | 71(±2) | 53(±3) | 39(±3) | 3D sphere count of MDAMB231 (MDAMB231 [4]; drug 2.5 uM): 25(±5); 3D sphere count of MDAMB231 (MDAMB231 [4]; drug 25 uM): 16(±3)

Further compounds by falling IC50 (MDAMB231 [1]; [5]), results first:

Row | IC50 (MDAMB231 [1]; [5]) | IC50 (PC3 [3]; [6]) | Compound | viability at 0.0025 µM (PC3 [2]) | viability at 0.025 µM (PC3 [2]) | viability at 0.25 µM (PC3 [2]) | viability at 2.5 µM (PC3 [2]) | viability at 25 µM (PC3 [2]) | 3D sphere count of PC3 (PC3 [2]; drug 0.0025 uM) | 3D sphere count of PC3 (PC3 [2]; drug 0.025 uM) | 3D sphere count of PC3 (PC3 [2]; drug 0.25 uM) | 3D sphere count of PC3 (PC3 [2]; drug 2.5 uM) | 3D sphere count of PC3 (PC3 [2]; drug 25 uM) | viability at 0.0025 µM (MDAMB231 [4]) | viability at 0.025 µM (MDAMB231 [4]) | viability at 0.25 µM (MDAMB231 [4]) | viability at 2.5 µM (MDAMB231 [4]) | viability at 25 µM (MDAMB231 [4]) | 3D sphere count of MDAMB231 (MDAMB231 [4]; drug 0.0025 uM) | 3D sphere count of MDAMB231 (MDAMB231 [4]; drug 0.025 uM) | 3D sphere count of MDAMB231 (MDAMB231 [4]; drug 0.25 uM) | further results
6 | 2.22 µM | 0.269 µM | COc1ccc(OC2=CC(=O)c3c(OCCCN4CCOCC4)cccc3C2=O)cc1 [Formula 77] | 80% | 68% | 51% | 36% | 26% | 64(±3) | 55(±3) | 41(±3) | 29(±6) | 21(±3) | 82% | 70% | 53% | 40% | 30% | 74(±4) | 63(±5) | 48(±3) | 3D sphere count of MDAMB231 (MDAMB231 [4]; drug 2.5 uM): 36(±4); 3D sphere count of MDAMB231 (MDAMB231 [4]; drug 25 uM): 27(±3)
7 | 1.37 µM | 1.35 µM | O=C1C(Oc2ccc3c(c2)OCO3)=CC(=O)c2c(OCCN3CCOCC3)cccc21 [Formula 46, 5-(2-morpholinoethoxy)-2-(benzo[d][1,3]dioxol-5-yloxy)naphthalene-1,4-dione] | 82% | 67% | 51% | 36% | 22% | 66(±3) | 54(±4) | 41(±3) | 29(±3) | 18(±3) | 74% | 60% | 49% | 32% | 20% | 67(±5) | 54(±4) | 44(±4) | 3D sphere count of MDAMB231 (MDAMB231 [4]; drug 2.5 uM): 29(±3); 3D sphere count of MDAMB231 (MDAMB231 [4]; drug 25 uM): 18(±3)
8 | 0.566 µM | 0.306 µM | O=C1C(Oc2ccc(F)cc2)=CC(=O)c2c(OCCN3CCOCC3)cccc21 [Formula 75, 5-(2-morpholinoethoxy)-2-(4-fluorophenoxy) naphthalene-1,4-dione] | 82% | 57% | 47% | 33% | 20% | 66(±4) | 46(±4) | 38(±3) | 27(±3) | 16(±2) | 80% | 56% | 45% | 32% | 17% | 64(±3) | 45(±3) | 36(±4) | 3D sphere count of MDAMB231 (MDAMB231 [4]; drug 2.5 uM): 26(±3); 3D sphere count of MDAMB231 (MDAMB231 [4]; drug 25 uM): 14(±3)
9 | 0.502 µM | 0.527 µM | O=C1C=C(Oc2ccc3c(c2)OCO3)C(=O)c2c(OCCN3CCOCC3)cccc21 [Formula 79, 8-(2-morpholinoethoxy)-2-(benzo[d][1,3]dioxol-6-yloxy)naphthalene-1,4-dione] | 78% | 57% | 43% | 30% | 20% | 65(±4) | 55(±3) | 43(±3) | 33(±3) | 24(±4) | 76% | 56% | 39% | 26% | 19% | 69(±3) | 51(±3) | 35(±3) | 3D sphere count of MDAMB231 (MDAMB231 [4]; drug 2.5 uM): 24(±3); 3D sphere count of MDAMB231 (MDAMB231 [4]; drug 25 uM): 17(±3)
10 | 0.109 µM | 0.225 µM | O=C1C(Oc2ccc(F)cc2F)=CC(=O)c2c(OCCN3CCOCC3)cccc21 [Formula 74] | 73% | 56% | 41% | 27% | 17% | 64(±6) | 45(±2) | 36(±4) | 24(±4) | 15(±3) | 73% | 48% | 35% | 27% | 12% | 60(±3) | 39(±3) | 29(±3) | 3D sphere count of MDAMB231 (MDAMB231 [4]; drug 2.5 uM): 22(±4); 3D sphere count of MDAMB231 (MDAMB231 [4]; drug 25 uM): 10(±2)
